Reference: US8580776B2, “Compositions and methods for treating neurodegenerating diseases” (The Board of Trustees of the University of Illinois, priority 2007, dated 2013)

System: IκBα
Assay: QPCR of IκBα mRNA in frontal cortex of DSP4-treated rats
Assay type: in vivo, rat
Experimental: In this experiment, the effects of DSP4 on tyrosine hydroxylase (TH) and IkBα expression were analyzed. Adult rat Sprague Dawley rats were treated with the selective neurotoxin DSP4 to lesion locus ceruleus (LC) noradrenergic neurons and deplete cortical NA levels as described in Example 1.
RNA samples from control or DSP4-treated rats (n=4 each) were converted to cDNA and analyzed by QPCR for relative levels of tyrosine hydroxylase (TH) (FIG. 6A) in the locus ceruleus (LC).
Total cytoplasmic RNA from tissues was prepared from cells using TRIZOL reagent according to manufacturer procedures (Invitrogen/GIBCO); aliquots were converted to cDNA using random hexamer primers, and mRNA levels were estimated by quantitative touchdown PCR (QPCR). Conditions were 35 cycles of denaturation at 94° C. for 10 s; annealing at 58-64° C. for 15 s; and extension at 72° C. for 20 s on a Corbett Rotorgene Real-Time PCR unit (Corbett, Australia). The PCR mastermix contained SYBR Green (1 μl diluted 1:10,000 SybrGreen I 10,000× concentrate, Molecular Probes, Eugene, Oreg.). Relative mRNA concentrations were calculated from the takeoff point of reactions using manufacturer's software. Melting curve analysis and agarose gel electrophoresis were performed to ensure production of single and corrected size products. […]

CCN(CCCl)Cc1ccccc1Br [DSP4, N-(2-chloroethyl)-N-ethyl-2-bromobenzylamine]
cortical IκBα mRNA levels (P<0.01): 45 % versus control values | reduction of cortical IκBα mRNA levels (versus control values, n=4, P<0.01): 55%
